Measured values published in the CombiSolv-Exp solvation set (Vermeire and Green 2021).

Experiment: solvent given as SMILES

O=C=S
Details | solvation free energy, 298 K [kcal/mol]
in CC1COC(=O)O1 | -1.15
in CN1CCCC1=O | -1.41
in COCCOCCOCCOCCOC | -1.41
in O | 0.41

CCN(CC)CC
Details | solvation free energy, 298 K [kcal/mol]
in Brc1ccccc1 | -4.47
in C1CCOC1 | -4.59
in C1COCCO1 | -4.06
in CC1COC(=O)O1 | -2.89
in CC#N | -3.66
in CC(=O)c1ccccc1 | -3.93
in CC(C)(C)O | -4.38
in CC(C)=O | -4.05
in CC(C)CCO | -4.88
in CC(C)O | -4.55
in CC(Cl)(Cl)Cl | -4.63
in CCC#N | -4.03
in CCC(C)=O | -4.16
in CCC(C)O | -4.82
in CCCCCC | -4.49
in CCCCCCC | -4.47
in CCCCCCCCCCCCCCCC | -3.99
in CCCCCO | -4.97
in CCCCCl | -4.57
in CCCCO | -4.85
in CCCO | -4.82
in CCO | -4.87
in CCOC(=O)c1ccccc1 | -4.06
in CCOC(C)=O | -4.23
in CCOCC | -4.45
in CN(C)C=O | -3.57
in CO | -5.24
in Cc1ccc(C)cc1 | -4.52
in Cc1ccccc1 | -4.66
in ClC1CCCCC1 | -4.29
in ClC(Cl)(Cl)Cl | -4.82
in ClC(Cl)C(Cl)Cl | -5.86
in ClC(Cl)Cl | -5.61
in ClCCCl | -4.38
in ClCCl | -4.98
in Clc1ccccc1 | -4.56
in Ic1ccccc1 | -4.33
in N#Cc1ccccc1 | -4.05
in O | -3.22
in O=C1CCCCC1 | -4.11
in c1ccccc1 | -4.6

FC(F)(F)C(F)(F)C(F)(F)C(F)(F)C(F)(F)C(F)(F)F
Details | solvation free energy, 298 K [kcal/mol]
in CCCCCC | -2.12
in CCCO | -0.96

COC(=O)C(C)(C)C
Details | solvation free energy, 298 K [kcal/mol]
in O | -2.4

Cc1cncc(C)c1
Details | solvation free energy, 298 K [kcal/mol]
in O | -4.84

Clc1ccc2c(c1)Oc1ccc(Cl)cc1O2
Details | solvation free energy, 298 K [kcal/mol]
in O | -3.67

Oc1ccccc1Br
Details | solvation free energy, 298 K [kcal/mol]
in CC(C)CC(C)(C)C | -6.25
in CCCCCC | -6.52
in CCCCCCC | -6.49
in CCCCCCCC | -6.47
in CCCCCCCCCC | -6.44
in Cc1ccc(C)cc1 | -7.18
in Cc1cccc(C)c1 | -7.27
in Cc1ccccc1C | -7.22
in O | -5.06

FC(C(F)(F)F)C(F)(F)F
Details | solvation free energy, 298 K [kcal/mol]
in CCCCCCCCO | -1.12
in CN1CCCC1=O | -0.6
in O | 2.01

CN1CCCCC1
Details | solvation free energy, 298 K [kcal/mol]
in COC(C)(C)C | -4.8
in O | -3.88

O=C(O)CCCCCCCc1ccccc1
Details | solvation free energy, 298 K [kcal/mol]
in O | -8.98

CC=CC=CC
Details | solvation free energy, 298 K [kcal/mol]
in C=CCCCCCCCCCCCCCC | -3.86
in O | 0.61

C=Cc1ccccc1
Details | solvation free energy, 298 K [kcal/mol]
in O | -1.27

C=CCCCCCC
Details | solvation free energy, 298 K [kcal/mol]
in CC#N | -3.98
in CCC#N | -4.66
in CCCC#N | -4.42
in CCCCC(CC)COC(=O)CCCCC(=O)OCC(CC)CCCC | -4.72
in CCCCCCC | -5.17
in CCCCCCCCC=CCCCCCCCC(=O)OCC(COC(=O)CCCCCCCC=CCCCCCCCC)OC(=O)CCCCCCCC=CCCCCCCCC | -4.65
in CCCCCCCCO | -4.58
in CCCCOC(=O)c1ccccc1C(=O)OCCCC | -4.62
in CCN1CCCC1=O | -4.36
in CCN(CC)C(C)=O | -4.5
in CCNC(C)=O | -4.23
in CCNC=O | -3.97
in CCOC(=O)c1ccccc1C(=O)OCC | -4.11
in CN1CCCC1=O | -4.02
in CN(C)C=O | -3.89
in CNC=O | -3.6
in CS(C)=O | -3.04
in N#CCCCCC#N | -3.31
in NC=O | -1.58
in NCCO | -2.07
in Nc1ccccc1 | -3.82
in O | 1.93
in O=C1CCCO1 | -3.53
in O=CN1CCOCC1 | -3.4
in OCCO | -1.81
in OCCOCCO | -2.55
in OCCOCCOCCO | -2.78

CC(CC(C)(C)C)CC(C)(C)CC(C)(C)C (stereo not drawn)
Details | solvation free energy, 298 K [kcal/mol]
in O | 4.46

CCCCCCCOC(=O)c1ccccc1C(=O)OCCCCCCC
Details | solvation free energy, 298 K [kcal/mol]
in O | -6.68

CC1CCCCC1O (stereo not drawn)
Details | solvation free energy, 298 K [kcal/mol]
in O | -4.79
